Legend:
Type in all cases: in vivo
[1] = test system: cabbage moth (Plutella xylostella); test: cabbage moth mortality test on cabbage seedling; details: 120 h, 500 ppm spray on cabbage seedling, five second instar larvae, counted after 5 days, read-out: Morality (%)
Text: Any of the present compounds 1-4, 1-5, 1-6, 3-9, 3-13, 3-17, 3-23, 3-25, 3-26, 3-29, 3-31, 4-1 or 5-3, each of which was made to a formulation according to the similar method to that of Formulation Example 6, was mixed with water so as to be 500 ppm. The mixtures were sprayed to foliar parts of the cabbage seedling (on the developmental stage of the second to third true leaf) that was planted in a container so as to adhere adequately on the leaves of the above-mentioned cabbage. After the spraying, the stem and leaf of the seedling was cut out and then was installed into the container that was covered with the filter paper. Five heads of cabbage moth (Plutella xylostella) at the second instar larval stages were released into the cup. After 5 days, the surviving insects were counted, and the mortality of insects was calculated by the following equation. Morality (%)={1−the number of the surviving insects/5}×100

[2] = test system: cotton aphid (Aphis gossypii); test: cotton aphid test on cucumber seedling; details: 144 h, 500 ppm spray on infested cucumber seedling, counted after 6 days, read-out: Controlling value (%)
[3] = test system: tomato late blight fungi (Phytophthora infestans); details: 500 ppm foliar spray, inoculation after 1 day; tomato cv PATIO

Compound	pest or weed control at 500 ppm [1]	pest or weed control at 500 ppm [2]	lesion area compared to the lesion area in an untreated tomato [3]
CCC(=NN=C(C)C(C)=NOCc1ccc(OC)cc1)OCc1c(C)cccc1-n1nnn(C)c1=O [C-12]	≥ 80%	≥ 60%	–
CCC(=NN=C(C)C(C)=NOCC#N)OCc1c(C)cccc1-n1nnn(C)c1=O [C-13]	≥ 80%	–	–
CCC(=NN=C(C)C(C)=NOCCOC)OCc1c(C)cccc1-n1nnn(C)c1=O [C-14]	≥ 80%	≥ 60%	–
CCC(=NN=C(C)c1c(C)nn(C)c1Cl)OCc1c(C)cccc1-n1nnn(C)c1=O [D-1]	≥ 80%	≥ 60%	–
CCC(=NN=C(C)c1ccc2c(c1)CCO2)OCc1c(C)cccc1-n1nnn(C)c1=O [D-2]	≥ 80%	≥ 60%	–
CCC(=NN=C(C)c1ccc2scnc2c1)OCc1c(C)cccc1-n1nnn(C)c1=O [D-3]	≥ 80%	≥ 60%	–
CCC(=NN=C(C)c1cnc2ccccc2c1)OCc1c(C)cccc1-n1nnn(C)c1=O [D-5]	≥ 80%	≥ 60%	–
CCC(=NN=C(C)c1cc2ccccc2n1C)OCc1c(C)cccc1-n1nnn(C)c1=O [D-6]	–	≥ 60%	–
CCC(=NN=C(C)c1ccc2c(ccn2C)c1)OCc1c(C)cccc1-n1nnn(C)c1=O [D-7]	–	≥ 60%	–
CCC(=NN=C(C)c1ccc2c(c1)OCO2)OCc1c(C)cccc1-n1nnn(C)c1=O [D-8]	≥ 80%	≥ 60%	–
CCC(=NN=C(C)c1cccc2c1OC(F)(F)O2)OCc1c(C)cccc1-n1nnn(C)c1=O [D-9]	–	≥ 60%	–
CCC(=NN=C(C)c1ccn(C)n1)OCc1c(C)cccc1-n1nnn(C)c1=O [D-19]	≥ 80%	–	–
CCC(=NN=C1CCc2c(F)cccc21)OCc1c(C)cccc1-n1nnn(C)c1=O [E-2]	–	≥ 60%	–
CCC(=NN=C1CCc2cc(F)ccc21)OCc1c(C)cccc1-n1nnn(C)c1=O [E-3]	–	≥ 60%	–
CCC(=NN=C1CCc2ccc(F)cc21)OCc1c(C)cccc1-n1nnn(C)c1=O [E-4]	–	≥ 60%	–
CCC(=NN=C1CCc2cccc(F)c21)OCc1c(C)cccc1-n1nnn(C)c1=O [E-5]	≥ 80%	–	–

Compound	pest or weed control at 500 ppm [1]	pest or weed control at 500 ppm [2]	lesion area compared to the lesion area in an untreated tomato [3]
CCC(=NN=C1CCc2c(OC)cccc21)OCc1c(C)cccc1-n1nnn(C)c1=O [E-6]	≥ 80%	≥ 60%	≤ 30%
CCC(=NN=C1CCc2ccc(OC)cc21)OCc1c(C)cccc1-n1nnn(C)c1=O [E-8]	–	≥ 60%	–
CCC(=NN=C1COc2ccccc21)OCc1c(C)cccc1-n1nnn(C)c1=O [E-10]	–	≥ 60%	–
CCC(=NN=C1CCOc2ccccc21)OCc1c(C)cccc1-n1nnn(C)c1=O [E-11]	–	≥ 60%	–
CCC(=NN=C1CCOc2ccccc21)OCc1c(OC)cccc1-n1nnn(C)c1=O [E-12]	≥ 80%	≥ 60%	–
CCC(=NN=C1CCOc2ccccc21)OCc1c(Cl)cccc1-n1nnn(C)c1=O [E-13]	≥ 80%	–	–
CCC(=NN=C1CCOc2ccccc21)OCc1c(C2CC2)cccc1-n1nnn(C)c1=O [E-14]	≥ 80%	≥ 60%	–
CCC(=NN=C1CCOc2cccc(F)c21)OCc1c(C)cccc1-n1nnn(C)c1=O [E-21]	≥ 80%	–	–
CCC(=NN=C1CCOc2cc(F)cc(F)c21)OCc1c(C)cccc1-n1nnn(C)c1=O [E-24]	≥ 80%	≥ 60%	–
CCC(=NN=C1CCCc2ccccc21)OCc1c(C)cccc1-n1nnn(C)c1=O [E-25]	≥ 80%	≥ 60%	–
CCC(=NN=C1CCOc2ccc(C)cc21)OCc1c(C)cccc1-n1nnn(C)c1=O [E-26]	≥ 80%	≥ 60%	–
CCC(=NN=C1CCOc2c(F)ccc(F)c21)OCc1c(C)cccc1-n1nnn(C)c1=O [E-27]	≥ 80%	≥ 60%	–
CCC(=NN=C1CCSc2ccccc21)OCc1c(C)cccc1-n1nnn(C)c1=O [E-28]	≥ 80%	≥ 60%	–
CCC(=NN=C1CC[S+]([O-])c2ccccc21)OCc1c(C)cccc1-n1nnn(C)c1=O (stereo not shown) [E-29]	≥ 80%	≥ 60%	–
CCC(=NN=C1CCOc2cc(OC)ccc21)OCc1c(C)cccc1-n1nnn(C)c1=O [E-30]	≥ 80%	≥ 60%	–
